Data published in patent US6849576B2, “Plant-activating agent” (Kao Corporation, priority 2000, dated 2005).

Tests used:
liverwort callus cells = assay: Reproduction of green cells: liverwort callus cultivation, fresh weight at 10th day; format: cell-based, liverwort (Harchantia polymorpha L.); details: liverwort callus fresh weight at 10th day (240 hours); relative value, control area = 100; concentrations (ppm) as in Table 7
Experimental: In case of a unicellular organism, an individual of this organism can be used itself as a green cell. […] When chlorella is used, a test substance acting as a plant-activating agent is added to an inorganic salt medium for chlorella (test area), and the number of cells (cells/ml) when cultivation is conducted for a certain period can be compared with the number of cells (cells/ml) in the non-added system cultivated under the same condition (control area), for calculation. Further, cells in the form of callus can also be used. As the callus, a liverwort (Harchantia polymorpha L.) callus may be exemplified. When a callus is used, the test substance acting as a plant-activating agent is added to e.g. a sterilized medium for calluses (test area), and the weight of callus when cultivation is conducted for a certain period can be compared with the weight of callus of the non-added system cultivated under the same condition (control area), for calculation. In any case, the concentration of the test substance in the test area is not limited but suitably from 0.1 to 1000 ppm in terms of effective components.
100 ml of the medium (MSK2 medium) for liverworts were placed into a 500-ml Erlenmeyer flask, and the flask was capped with a silicon cap having its ventilative property and placed into an autoclave (at a high temperature, under a high pressure, and a sterilized oven) to sterilize the medium (for 20 minutes). Herein, the substance acting as the plant-activating agent was added in a concentration shown in Table 7 into a culturing solution in the test area. After sterilization, the temperature of the medium was returned to a normal temperature. 2 ml of liverwort callus cells under a steady state, which had been sub-cultivated previously, were sucked up by a 2-ml Komagome pipette (measuring pipet) and incubated to the sterilized medium. These operations are conducted in a clean bench when sterilized condition is necessary. Cultivation is carried out in a shaking incubator rotating at 110 rpm at 23° C. under continuous illumination (with illuminance of 10 klx.) with carbon dioxide and humidity under natural conditions. Tenth day (after 240 hours) after starting the cultivation, the whole culturing solution in each area was filtrated under suction, and the fresh weight (raw weight) (g) of the callus cell was measured. This was made as the amount in reproduction of green cells, and the improved degree in reproduction of green cells was measured by the above-described formula.

tomato “Momotato” = assay: Tomato pot test, soil treatment: SPAD value, dry weight, leaf-area, ascorbic acid and nitrate ion in the blade part; format: in vivo; details: for Concentration of ascorbic acid in the blade part / Concentration of nitrate ion in the blade part / Dry weight of plant / Leaf-area: 3rd day after 7th treatment, relative to control area = 100; for SPAD value: soil treated 7 times weekly, about 50 ml per pot, in 3000-fold Otsuka OKF2, 3rd day after 7th treatment, control area 34.3
Experimental: (§1) The SPAD values in the test and control areas grown under the same conditions are measured by Minolta Chlorophyll Meter SPAD 502 (supplied by Minolta Co., Ltd.). This is an apparatus to measure the amount of chlorophyll of plants (leaves) without destruction. Raw leaves are inserted into this apparatus and irradiated with light (stroboscopic emission by a xenon lamp). The transmission light is passed through a filter having 670 nm of the maximum wavelength to be absorbed by chlorophyll and another filter having 750 nm of the non-specific absorption band of a polymer such as protein, the difference in light absorption amounts at both wavelengths is measured by an integrated circuit and converted digitally, and then the value is expressed. The value is indicated in terms of numerical values between zero to 80 (SPAD value). The SPAD value has a high correlation with the chlorophyll content per unit area of a leaf. The following regression formula is satisfied between the value (X) measured by SPAD 502 and the chlorophyll content (Y) (mg/100 cm^2) (Shokubutsu Eiyo Jikken Ho (translated as Method for testing nutrition of plants), 2nd press., pp. 366-367 issued on Apr. 20th, 1991 by Hakuyu Sha K. K.).
(§2) The improved degree of the SPAD value in the present invention is calculated as follows: Improved degree of the SPAD value=(SPAD value in test area)−(SPAD value in control area).
(§3) The measuring time of the SPAD is not limited but only necessitates that the area of a leaf of the plant reaches to an area (about 5 mm×5 mm or more) measurable by a SPAD meter after a treatment with the substance acting as the plant-activating agent. The measurement of the SPAD value is carried out at least 20 times on the same leaf position of a plant treated with the substance acting as the plant-activating agent and of another plant not treated with the substance acting as a plant-activating agent, and the average value thereof is used.
(§4) The increased amount in weight of a plant (b) is calculated from fresh weights or dry weights in the test area and control area in which plants have been grown under the same conditions, like in the above-mentioned [i]. […] The weight of a plant is measured as follows. Each and all plants treated with the substance acting as the plant-activating agent (test area) and not treated with the substance acting as the plant-activating agent (control area) are taken out of a cultivation apparatus (e.g. a pot), soil and contaminations adhering to roots are washed away by running water sufficiently, and respective weights are measured (fresh weight). Each of the plants is dried at 70° C. for 5 days and the weight thereof after the drying is measured (dry weight). Increased amounts in weight of plants are calculated respectively by the following manner. Herein, though any of the fresh weight and dry weight may be calculated, the dry weight is preferably calculated for directly reflecting the net weight of an anabolite (assimilate). Increased amount (%) in weight (fresh weight) of a plant=[(fresh weight in test area−fresh weight in control area)/(fresh weight in control area)]×100 Increased amount (%) in weight (dry weight) of a plant=[(dry weight in test area−dry weight in control area)/(dry weight in control area)]×100
(§5) The improved degree of leaf-area of a plant (c) is calculated from leaf-area of whole plants in the test area and control area in which plants have been grown in the same conditions, like in the above-mentioned [i]. The improved degree is preferably not less than 5%, more preferably not less than 7% and most preferably not less than 9%. In the present invention, the improved degree of leaf-area is measured using an automatic planimeter AAC-400 model (supplied by Hayashi Denko K. K.). This automatic planimeter is a device to detect, by a photo-electric element, the extent of blockage of scanning beam by a sample. According to this device, the minimum unit is 1 mm^2, the maximum display number can be shown up to 99999.99 cm^2. […]

spinach “Esper” = assay: Spinach pot test, soil treatment: SPAD value, dry weight, leaf-area, ascorbic acid and nitrate ion in the blade part; format: in vivo; details: 3rd day after 5th treatment; for Concentration of ascorbic acid in the blade part / Concentration of nitrate ion in the blade part / Dry weight of plant / Leaf-area: relative to control area = 100; for SPAD value: soil treated 5 times weekly, about 150 ml per pot, in water, control area 43.1
Experimental: as §1, §2, §3, §4, §5

Compound: O=C([O-])CCC(=O)[O-].[Na+].[Na+] [Comparative product 5-2, Sodium succinate, reference compound]
- Improved degree in reproduction of green cells (liverwort callus cells): 91

Compound: CCCCCCCCCCCCCCCCCCOC(=O)CCCCCCCCCCCCCCCCC [Inventive product 5-10, Stearyl sterate]
- Improved degree in reproduction of green cells (liverwort callus cells): 125

Compound: Stearic acid monoglyceride [Inventive product 5-23]
- Improved degree in reproduction of green cells (liverwort callus cells): 118

Compound: Citric acid monostearate [Inventive product 5-7]
- Improved degree in reproduction of green cells (liverwort callus cells): 135

Compound: Sodium POE(3) lauryl ether sulfate [Comparative product 3-4]
- Concentration of ascorbic acid in the blade part (tomato “Momotato”): 101%
- Concentration of nitrate ion in the blade part (tomato “Momotato”): 100%
- Dry weight of plant (tomato “Momotato”): 100%
- Leaf-area (tomato “Momotato”): 100%
- SPAD value (tomato “Momotato”): 34.9 point

Compound: Vitamin B12 [Inventive product 5-19]
- Improved degree in reproduction of green cells (liverwort callus cells): 108

Compound: CCCCCCCCCCCCCCCCCCOCCCCCCCCCCCCCCCCCC [Inventive product 3-9, Distearyl ether]
- Concentration of ascorbic acid in the blade part (tomato “Momotato”): 134%
- Concentration of nitrate ion in the blade part (tomato “Momotato”): 79%
- Dry weight of plant (tomato “Momotato”): 120%
- Leaf-area (tomato “Momotato”): 112%
- SPAD value (tomato “Momotato”): 38.1 point

Compound: Hexaglycerol monostearate [Inventive product 3-16]
- Concentration of ascorbic acid in the blade part (tomato “Momotato”): 119%
- Concentration of nitrate ion in the blade part (tomato “Momotato”): 84%
- Dry weight of plant (tomato “Momotato”): 115%
- Leaf-area (tomato “Momotato”): 108%
- SPAD value (tomato “Momotato”): 36.8 point

Compound: POE(20) sorbitan monooleate [Comparative product 3-1]
- Concentration of ascorbic acid in the blade part (tomato “Momotato”): 100%
- Concentration of nitrate ion in the blade part (tomato “Momotato”): 99%
- Dry weight of plant (tomato “Momotato”): 103%
- Leaf-area (tomato “Momotato”): 102%
- SPAD value (tomato “Momotato”): 35.1 point

Compound: O=C(O)C(O)C(O)C(=O)O (stereo not drawn) [Inventive product 5-21, Tartaric acid]
- Improved degree in reproduction of green cells (liverwort callus cells): 110

Compound: CCCCCCCCCCCCCCCC(=O)O [Inventive product 5-2, Palmitic acid]
- Improved degree in reproduction of green cells (liverwort callus cells): 110

Compound: CCCCCCCCCCCCCCCCCCO [Inventive product 5-5, Stearyl alcohol]
- Improved degree in reproduction of green cells (liverwort callus cells): 140

Compound: POE(6) sorbitan monolaurate [Comparative product 3-3]
- Concentration of ascorbic acid in the blade part (tomato “Momotato”): 101%
- Concentration of nitrate ion in the blade part (tomato “Momotato”): 99%
- Dry weight of plant (tomato “Momotato”): 100%
- Leaf-area (tomato “Momotato”): 102%
- SPAD value (tomato “Momotato”): 35.0 point

Compound: Sodium POE(3) lauryl ether sulfate [Comparative product 4-2, reference compound]
- Concentration of ascorbic acid in the blade part (spinach “Esper”): 95%
- Concentration of nitrate ion in the blade part (spinach “Esper”): 101%
- Dry weight of plant (spinach “Esper”): 98%
- Leaf-area (spinach “Esper”): 95%
- SPAD value (spinach “Esper”): 42.5 point

Compound: O=C(O)CCCC[C@@H]1SC[C@@H]2NC(=O)N[C@@H]21 [Inventive product 5-24, Biotin]
- Improved degree in reproduction of green cells (liverwort callus cells): 106

Compound: Cc1ncc(CO)c(CO)c1O [Inventive product 5-18, Vitamin B6]
- Improved degree in reproduction of green cells (liverwort callus cells): 107

Compound: CCCCCCCC/C=C\CCCCCCCCNC(=O)CC(O)(CC(=O)O)C(=O)O (stereo not drawn) [Inventive product 5-8, Citric acid oleyl amide]
- Improved degree in reproduction of green cells (liverwort callus cells): 125

Compound: CCCCCCCCCCCCCCCCCCOC(=O)C(O)CO (stereo not drawn) [Inventive product 5-17, Glyceric acid stearyl ester]
- Improved degree in reproduction of green cells (liverwort callus cells): 108

Compound: CCCCCCCCCCCCCCCCCCOCCCCCCCCCCCCCCCCCC [Inventive product 4-9, Distearyl ether]
- Concentration of ascorbic acid in the blade part (spinach “Esper”): 120%
- Concentration of nitrate ion in the blade part (spinach “Esper”): 73%
- Dry weight of plant (spinach “Esper”): 116%
- Leaf-area (spinach “Esper”): 111%
- SPAD value (spinach “Esper”): 49.5 point

Compound: POE(1) stearyl ether [Inventive product 5-11]
- Improved degree in reproduction of green cells (liverwort callus cells): 133

Compound: CCCCCCCCCCCCCCCCCC(=O)O [Inventive product 5-1, Stearic acid]
- Improved degree in reproduction of green cells (liverwort callus cells): 120

Compound: POE(20) sorbitan tristearate [Comparative product 3-5]
- Concentration of ascorbic acid in the blade part (tomato “Momotato”): 102%
- Concentration of nitrate ion in the blade part (tomato “Momotato”): 98%
- Dry weight of plant (tomato “Momotato”): 101%
- Leaf-area (tomato “Momotato”): 101%
- SPAD value (tomato “Momotato”): 35.1 point

Compound: Vitamin B12 [Inventive product 4-2]
- Concentration of ascorbic acid in the blade part (spinach “Esper”): 111%
- Concentration of nitrate ion in the blade part (spinach “Esper”): 85%
- Dry weight of plant (spinach “Esper”): 115%
- Leaf-area (spinach “Esper”): 108%
- SPAD value (spinach “Esper”): 45.9 point

Compound: CC(C)C[C@H](N)C(=O)O [Inventive product 4-6, L-leucine]
- Concentration of ascorbic acid in the blade part (spinach “Esper”): 113%
- Concentration of nitrate ion in the blade part (spinach “Esper”): 85%
- Dry weight of plant (spinach “Esper”): 118%
- Leaf-area (spinach “Esper”): 110%
- SPAD value (spinach “Esper”): 49.0 point

Compound: POE(1) stearyl ether [Inventive product 3-11]
- Concentration of ascorbic acid in the blade part (tomato “Momotato”): 116%
- Concentration of nitrate ion in the blade part (tomato “Momotato”): 89%
- Dry weight of plant (tomato “Momotato”): 114%
- Leaf-area (tomato “Momotato”): 108%
- SPAD value (tomato “Momotato”): 37 point

Compound: POE(1) stearyl ether [Inventive product 4-11]
- Concentration of ascorbic acid in the blade part (spinach “Esper”): 114%
- Concentration of nitrate ion in the blade part (spinach “Esper”): 86%
- Dry weight of plant (spinach “Esper”): 112%
- Leaf-area (spinach “Esper”): 110%
- SPAD value (spinach “Esper”): 46.8 point

Compound: POE(20) sorbitan monooleate [Comparative product 4-1, reference compound]
- Concentration of ascorbic acid in the blade part (spinach “Esper”): 98%
- Concentration of nitrate ion in the blade part (spinach “Esper”): 100%
- Dry weight of plant (spinach “Esper”): 101%
- Leaf-area (spinach “Esper”): 96%
- SPAD value (spinach “Esper”): 43.5 point

Compound: POE(8) oleyl ether [Comparative product 3-2]
- Concentration of ascorbic acid in the blade part (tomato “Momotato”): 102%
- Concentration of nitrate ion in the blade part (tomato “Momotato”): 98%
- Dry weight of plant (tomato “Momotato”): 101%
- Leaf-area (tomato “Momotato”): 103%
- SPAD value (tomato “Momotato”): 35.0 point
